According to patent US20100226966A1, “Method for transdermal controlled release drug delivery” (priority 2009, published 2010):

Legend:
[1] = Clinical dose-finding and bioavailability study, transdermal coated microprojection vs subcutaneous Forteo, PTH plasma levels and safety; assay type: in vivo, human (healthy, young females)
Method: (§1) In this example, transdermal delivery of a PTH-based agent using a coated microprojection member was compared to conventional, subcutaneous delivery of teriparatide PTH (Forteo™). A dose-finding study was conducted with […], young females that received two treatments, separated by at least five days, according to randomly assigned sequence of 20 μg subcutaneous delivery of Forteo™ and 30 μg transdermal delivery of a PTH-based agent by coated microprojection. Bioavailability of transdermally delivered PTH was determined in 20 healthy, young females by administering two treatments, separated by at least five day, according to randomly assigned sequence of 40 μg subcutaneous delivery of Forteo™ and 30 μg transdermal delivery of a PTH-based agent by coated microprojection.
In the dose-finding study, two participants dropped out, eleven subjects participated and eight generated usable data. It was determined that three subjects had measurable PTH plasma levels following subcutaneous injection and eight subjects had measurable PTH plasma levels following transdermal delivery.

Water solubility of PTH = assay type: physicochemical; settings: at pH 5
Source text: Referring now to FIG. 10, there is shown a superposition of the mole ratios for acetic acid and the neutral form of hPTH(1-34). […] At pH 5, negligible amounts of PTH are present as PTH zero net charge (PTH 0). The PTH is also highly soluble in water at concentrations in excess of 20%. During drying and subsequent storage, the free acetic acid will evaporate inherently resulting in formation of the water insoluble PTH 0. Subsequent reconstitution in water will not allow total solubilization of PTH. Accordingly, the use of a low volatility counterion provides a solid soluble formulation of PTH as long as the pH is maintained at least 2.5 pH units, preferably 3 pH units, below the pI of PTH. Preferably, this can be achieved by providing at least about two low volatility counterions to each molecule of PTH.

urinary cAMP = test: Urinary cAMP excretion after transdermal vs subcutaneous PTH delivery; assay type: in vivo, human (healthy, young females); settings: FIG. 15
Method: as §1
FIG. 12 further reflects a preferred pulsatile concentration profile of the PTH agent, i.e., rapid on-set and rapid off-set after reaching Cmax.

[2] = Pharmacokinetics of hPTH (1-34) after IV, SC and coated microprojection array administration in hairless guinea pig; assay type: in vivo; settings: HGP; for dose absorbed/delivered: calculated against IV AUC

CC[C@H](C)[C@H](NC(=O)[C@H](CCC(=O)O)NC(=O)[C@H](CO)NC(=O)[C@@H](NC(=O)[C@@H](N)CO)C(C)C)C(=O)N[C@@H](CCC(N)=O)C(=O)N[C@@H](CC(C)C)C(=O)N[C@@H](CCSC)C(=O)N[C@@H](Cc1cnc[nH]1)C(=O)N[C@@H](CC(N)=O)C(=O)N[C@@H](CC(C)C)C(=O)NCC(=O)N[C@@H](CCCCN)C(=O)N[C@@H](Cc1cnc[nH]1)C(=O)N[C@@H](CC(C)C)C(=O)N[C@@H](CC(N)=O)C(=O)N[C@@H](CO)C(=O)N[C@@H](CCSC)C(=O)N[C@@H](CCC(=O)O)C(=O)N[C@@H](CCCN=C(N)N)C(=O)N[C@H](C(=O)N[C@@H](CCC(=O)O)C(=O)N[C@@H](Cc1c[nH]c2ccccc12)C(=O)N[C@@H](CC(C)C)C(=O)N[C@@H](CCCN=C(N)N)C(=O)N[C@@H](CCCCN)C(=O)N[C@@H](CCCCN)C(=O)N[C@@H](CC(C)C)C(=O)N[C@@H](CCC(N)=O)C(=O)N[C@@H](CC(=O)O)C(=O)N[C@H](C(=O)N[C@@H](Cc1cnc[nH]1)C(=O)N[C@@H](CC(N)=O)C(=O)N[C@@H](Cc1ccccc1)C(=O)O)C(C)C)C(C)C [hPTH (1-34)]
subjects with measurable PTH plasma levels ([1]; bioavailability study, subcutaneous delivery 40 μg, 20 subjects completed): 15 subjects | subjects with measurable PTH plasma levels ([1]; bioavailability study, transdermal delivery 30 μg, 20 subjects completed): 20 subjects | subjects with measurable PTH plasma levels ([1]; dose-finding study, subcutaneous injection 20 μg, eight subjects with usable data): three | subjects with measurable PTH plasma levels ([1]; dose-finding study, transdermal delivery 30 μg, eight subjects with usable data): eight | solubility in water (concentration) (Water solubility of PTH): > 20% | biological activity as evidenced by urinary cAMP excretion (urinary cAMP): comparable to that following subcutaneous delivery | Fraction dose absorbed/delivered (%) ([2]; IV, 22.5 μg): 100% | dose absorbed/delivered ([2]; SC, 19.5 μg): 8.2 ± 2.9 µg | Cmax ([2]; hairless, guinea pig, plasma, 22.5 ug, IV): 11.2 ng/mL | dose absorbed/delivered ([2]; microprojection array, 40.0 μg): 6.6 ± 1.8 µg
